Measurements as given in US20090030086A1, “ANTIMICROBIAL AGENTS” (priority 2005, published 2009).
Values after ≈ are worked out from the molar mass of the structure shown. Like-named read-outs stand apart in the source and are kept apart here. Each block holds one compound with its values, some of them ahead of it.

Experiments:
P. acnes NCTC 737 [1] = test: MBC assay; assay type: cell-based, Propionibacterium acnes; settings: for MBC: Cutibacterium acnes, NCTC737; for MIC/MBC ratio: P. acnes NCTC 737
Method: (§1) The Propionibacterium spp organisms were cultured and maintained on Wilkins-Chalgren Anaerobe Medium (agar and broth) at pH 6.0; cultures were incubated anaerobically at 37° C. for 72 hours.
(§2) This assay, normally carried out after an MIC assay, determines the minimum concentration of a compound that is lethal to the micro-organism being tested.
(§3) These samples were then individually sub-cultured on non-selective agar medium, under the incubation conditions described above. Following incubation they were examined visually for bacterial growth.
(§4) MIC, MBC and DDA assays, as described above, were carried out using a range of different benzoquinones and hydroquinones. Supplemented DDA assays, in the presence of salt and lipid, were also conducted.

P. acnes NCTC 737 [2] = test: MIC assay; assay type: cell-based, Propionibacterium acnes
Method: 2. Propionibacterium spp.—the principal propionibacterial strain used in these studies was Propionibacterium acnes NCTC 737.
as §1
(§5) This is a standard international method for quantitatively assessing the antimicrobial activity of a compound in a liquid medium. The method used a 96-well microtitre plate, capable of holding about 200 μl of liquid per well. […] The culture media were as described above for the relevant test organisms.
(§6) The wells were inoculated with a liquid suspension of freshly grown micro-organism and incubated under the conditions described above. After incubation, the microtitre plate was examined visually (with the aid of a light box) for cloudiness in each well, which would indicate microbial growth. The MIC value was recorded as the lowest concentration of test compound required to inhibit microbial growth, i.e., the lowest concentration for which the liquid in the well remained clear.
(§7) The assays were conducted in duplicate and included both negative (culture medium only) and positive (culture medium, diluting solvent and inoculum) controls.
as §4

P. acnes NCTC 737 [3] = test: Supplemented disc diffusion assay; assay type: cell-based, Propionibacterium acnes; settings: for zone of inhibition at 200 µg/disc: Cutibacterium acnes, NCTC737, 72 h; for effect of lipid on antimicrobial activity: P. acnes NCTC 737, activity increases in the presence of lipid
Method: as §1
(§8) A sterile paper disc was impregnated with a sample of the test compound and a minimum of 30 minutes allowed for the solvents to evaporate as far as possible. The disc was then placed on an agar plate onto which the test micro-organism had been inoculated. The plate was then incubated under the conditions described above, following which it was examined visually for signs of bacterial growth. […] The diameter of this zone of “inhibition” was measured using a ProtoCOL™ automated zone sizer (Synbiosis, Cambridge, UK).
(§9) Performance under these conditions can provide a more reliable indication of activity on topical application. For assays conducted using S. aureus strains, the supplements were defibrinated horse blood (5% v/v), lipid (Tween™ 80 at 1% v/v) and sodium chloride (100 mM). For those using Propionibacterium spp. strains, the supplements were lipid (Tween™ 80 at 1% v/v) and sodium chloride (100 mM).
as §4
(§10) For most DDA assays, 200 μg of each compound was loaded onto each disc.

P. acnes NCTC 737 [4] = test: Disc diffusion assay (DDA); assay type: cell-based, Propionibacterium acnes; settings: for zone of inhibition at 200 µg/disc: Cutibacterium acnes
Method: as §1, §8
(§11) The area of the zone of inhibition was calculated from the measured zone diameter (D) using the formula π(D/2)^2.
as §10

S. aureus ATCC 29213 [5] = test: MIC assay; assay type: cell-based, Staphylococcus aureus
Method: 1. Staphylococcus aureus—the principal staphylococcal test micro-organism used in these studies was Staphylococcus aureus ATCC 29213. This strain is the one recommended for QC/QA purposes in Minimum Inhibitory Concentration (MIC) assays by the US Clinical and Laboratory Standards Institute (formerly the NCCLS), an FDA-recognised body.
(§12) The staphylococci and enterococci were cultured and maintained on Mueller-Hinton Medium (agar and broth) at pH 7.2; they were incubated aerobically at 37° C. for 24 hours.
as §5, §6, §7
(§13) The following experiments all used S. aureus ATCC 29213 as the test organism. MIC, MBC and DDA assays, as described above, were carried out using a range of different benzoquinones and hydroquinones. Supplemented DDA assays, in the presence of salt, lipid and blood, were also conducted.

S. aureus ATCC 29213 [6] = test: MBC assay; assay type: cell-based, Staphylococcus aureus
Method: as §12, §2, §3, §13

S. aureus ATCC 29213 [7] = test: Disc diffusion assay (DDA); assay type: cell-based, Staphylococcus aureus; settings: for zone of inhibition at 200 µg/disc: Staphylococcus aureus
Method: as §12, §8, §11, §10

S. aureus ATCC 29213 [8] = test: Supplemented disc diffusion assay; assay type: cell-based, Staphylococcus aureus; settings: for zone of inhibition at 200 µg/disc: Staphylococcus aureus, ATCC29213, 24 h
Method: as §12, §8, §9, §13, §10

[9] = Cutibacterium acnes, NCTC737, 72 h, pH 6
[10] = NCTC737, read-out: DDA (diameter of zone of inhibition)
[11] = S. aureus ATCC 29213, Mueller-Hinton broth pH 7.2, aerobic, 37° C., 24 hours
[12] = S. aureus ATCC 29213, unsupplemented agar, 200 μg per disc (thymoquinone 50 μg, 2,6-dimethoxy-p-benzoquinone 100 μg)
[13] = Staphylococcus aureus, ATCC29213, S. aureus ATCC 29213, Mueller-Hinton broth pH 7.2, aerobic, 37° C., 24 hours, read-out: MIC
[14] = Staphylococcus aureus, ATCC29213, read-out: MBC
[15] = S. aureus ATCC 29213, Tween 80 at 1% v/v, 200 μg per disc (thymoquinone 50 μg, 2,6-dimethoxy-p-benzoquinone 100 μg), read-out: DDA + lipid
[16] = S. aureus ATCC 29213, defibrinated horse blood 5% v/v, 200 μg per disc (thymoquinone 50 μg, 2,6-dimethoxy-p-benzoquinone 100 μg), read-out: DDA + blood
[17] = S. aureus ATCC 29213, sodium chloride 100 mM, 200 μg per disc (thymoquinone 50 μg, 2,6-dimethoxy-p-benzoquinone 100 μg), read-out: DDA + salt
[18] = ATCC29213, S. aureus ATCC 29213, unsupplemented agar, 200 μg per disc (thymoquinone 50 μg, 2,6-dimethoxy-p-benzoquinone 100 μg), read-out: DDA (diameter of zone of inhibition)
[19] = S. aureus ATCC 29213, Tween 80 at 1% v/v, 200 μg per disc (thymoquinone 50 μg, 2,6-dimethoxy-p-benzoquinone 100 μg)
[20] = S. aureus ATCC 29213, defibrinated horse blood 5% v/v, 200 μg per disc (thymoquinone 50 μg, 2,6-dimethoxy-p-benzoquinone 100 μg)
[21] = S. aureus ATCC 29213, sodium chloride 100 mM, 200 μg per disc (thymoquinone 50 μg, 2,6-dimethoxy-p-benzoquinone 100 μg)

Compound: O=C1C(F)=C(F)C(=O)C(F)=C1F [tetrafluoro-p-benzoquinone]
MBC (P. acnes NCTC 737 [1]): 250 µg/mL (≈ 1390 µM) | MIC/MBC ratio (P. acnes NCTC 737 [1]): 0.5 | activity against P. acnes NCTC 737 (in words) (P. acnes NCTC 737 [2]): strongly so | MIC (P. acnes NCTC 737 [2]; [9]): 125 µg/mL (≈ 694 µM) | zone of inhibition at 200 µg/disc (P. acnes NCTC 737 [3]; read-out: DDA + lipid): 30.8 mm | zone of inhibition at 200 µg/disc (P. acnes NCTC 737 [3]; read-out: DDA + salt): 32.4 mm | effect of lipid on antimicrobial activity (P. acnes NCTC 737 [3]): potentiated | zone of inhibition at 200 µg/disc (P. acnes NCTC 737 [4]; [10]): 25.9 mm

MIC (S. aureus ATCC 29213 [5]; [11]): 7.8 µg/mL (≈ 56.5 µM) | MIC/MBC ratio (P. acnes NCTC 737 [1]): 0.5 | MIC/MBC ratio (S. aureus ATCC 29213 [6]): 1 | MIC (P. acnes NCTC 737 [2]; P. acnes NCTC 737, Wilkins-Chalgren broth pH 6.0, anaerobic, 37° C., 72 hours): 7.8 µg/mL (≈ 56.5 µM)
Compound: Cc1c(O)ccc(O)c1C [2,3-dimethyl-p-hydroquinone]
MBC (S. aureus ATCC 29213 [6]): 7.8 µg/mL (≈ 56.5 µM) | DDA (diameter of zone of inhibition) (S. aureus ATCC 29213 [7]; [12]): 33.41 mm | DDA (diameter of zone of inhibition) (P. acnes NCTC 737 [4]; P. acnes NCTC 737, unsupplemented agar, 200 μg per disc (2,6-dimethoxy-p-benzoquinone 100 μg)): 18.75 mm

MIC (S. aureus ATCC 29213 [5]; [13]): 62.5 µg/mL (≈ 284 µM) | MIC/MBC ratio (S. aureus ATCC 29213 [6]): 0.25
Compound: CC(C)(C)C1=CC(=O)C=C(C(C)(C)C)C1=O [2,6-di-t-butyl-p-benzoquinone]
MBC (S. aureus ATCC 29213 [6]; [14]): 250 µg/mL (≈ 1130 µM) | zone of inhibition at 200 µg/disc (S. aureus ATCC 29213 [8]; [15]): 9.37 mm | zone of inhibition at 200 µg/disc (S. aureus ATCC 29213 [8]; [16]): 0 mm | zone of inhibition at 200 µg/disc (S. aureus ATCC 29213 [8]; [17]): 0 mm | zone of inhibition at 200 µg/disc (S. aureus ATCC 29213 [7]; [18]): 0 mm

Compound: Oc1cc(Cl)c(O)c(Cl)c1 [2,6-dichloro-p-hydroquinone]
MIC (S. aureus ATCC 29213 [5]; [11]): 31.25 µg/mL (≈ 175 µM) | MBC (S. aureus ATCC 29213 [6]): 31.25 µg/mL (≈ 175 µM) | MIC/MBC ratio (S. aureus ATCC 29213 [6]): 1 | DDA + lipid (S. aureus ATCC 29213 [8]; [19]): 14.32 mm | DDA + blood (S. aureus ATCC 29213 [8]; [20]): 11.83 mm | DDA + salt (S. aureus ATCC 29213 [8]; [21]): 16.19 mm | DDA (diameter of zone of inhibition) (S. aureus ATCC 29213 [7]; [12]): 16.29 mm

MIC/MBC ratio (P. acnes NCTC 737 [1]): 0.5 | MIC/MBC ratio (S. aureus ATCC 29213 [6]): 0.5
Compound: CC1=CC(=O)C(C(C)C)=CC1=O [thymoquinone]
zone of inhibition at 200 µg/disc (S. aureus ATCC 29213 [7]; [18]): 15.6 mm | effect of lipid on antimicrobial activity (P. acnes NCTC 737 [3]): potentiated | zone of inhibition at 200 µg/disc (P. acnes NCTC 737 [4]; NCTC737, P. acnes NCTC 737, unsupplemented agar, 200 μg per disc (2,6-dimethoxy-p-benzoquinone 100 μg), read-out: DDA (diameter of zone of inhibition)): 27.5 mm

MIC (S. aureus ATCC 29213 [5]; [13]): 31.2 µg/mL (≈ 252 µM) | MIC/MBC ratio (S. aureus ATCC 29213 [6]): 1
Compound: Cc1ccc(O)c(O)c1 [4-methylcatechol]
MBC (S. aureus ATCC 29213 [6]; [14]): 31.2 µg/mL (≈ 252 µM) | zone of inhibition at 200 µg/disc (S. aureus ATCC 29213 [8]; [15]): 20 mm | zone of inhibition at 200 µg/disc (S. aureus ATCC 29213 [8]; [16]): 0 mm | zone of inhibition at 200 µg/disc (S. aureus ATCC 29213 [8]; [17]): 20.9 mm | zone of inhibition at 200 µg/disc (S. aureus ATCC 29213 [7]; [18]): 18.3 mm

Compound: CC1=C(C)C(=O)C(C)=C(C)C1=O [duroquinone, 2,3,5,6-tetramethyl-p-benzoquinone]
MIC (S. aureus ATCC 29213 [5]; Staphylococcus aureus, ATCC29213, 24 h, pH 7.2): 31.2 µg/mL (≈ 190 µM) | MIC/MBC ratio (S. aureus ATCC 29213 [6]): 0.5 | MBC (S. aureus ATCC 29213 [6]; Staphylococcus aureus, ATCC29213): 62.5 µg/mL (≈ 381 µM) | zone of inhibition at 200 µg/disc (S. aureus ATCC 29213 [8]; read-out: DDA + blood): 0 mm | zone of inhibition at 200 µg/disc (S. aureus ATCC 29213 [8]; read-out: DDA + lipid): 16.2 mm | zone of inhibition at 200 µg/disc (S. aureus ATCC 29213 [8]; read-out: DDA + salt): 16.5 mm | zone of inhibition at 200 µg/disc (S. aureus ATCC 29213 [7]; ATCC29213, read-out: DDA (diameter of zone of inhibition)): 13.3 mm

Compound: Oc1ccc(O)c(Br)c1 [2-bromo-p-hydroquinone]
MIC (S. aureus ATCC 29213 [5]; [11]): 31.25 µg/mL (≈ 165 µM) | MBC (S. aureus ATCC 29213 [6]): 31.25 µg/mL (≈ 165 µM) | MIC/MBC ratio (S. aureus ATCC 29213 [6]): 1 | DDA + lipid (S. aureus ATCC 29213 [8]; [19]): 17.43 mm | DDA + blood (S. aureus ATCC 29213 [8]; [20]): 14.94 mm | DDA + salt (S. aureus ATCC 29213 [8]; [21]): 18.99 mm | DDA (diameter of zone of inhibition) (S. aureus ATCC 29213 [7]; [12]): 20.75 mm

Compound: O=C1C(Cl)=C(Cl)C(=O)C(Cl)=C1Cl [tetrachloro-p-benzoquinone]
MBC (P. acnes NCTC 737 [1]): 62.5 µg/mL (≈ 254 µM) | MIC/MBC ratio (P. acnes NCTC 737 [1]): 0.5 | MIC (P. acnes NCTC 737 [2]; [9]): 31.2 µg/mL (≈ 127 µM) | zone of inhibition at 200 µg/disc (P. acnes NCTC 737 [3]; read-out: DDA + lipid): 12.7 mm | zone of inhibition at 200 µg/disc (P. acnes NCTC 737 [3]; read-out: DDA + salt): 18.9 mm | zone of inhibition at 200 µg/disc (P. acnes NCTC 737 [4]; [10]): 11.6 mm
